From ChEMBL document CHEMBL5260848, “Recent advancements in the development of bioactive pyrazoline derivatives” (Eur J Med Chem, 2020)
Converted amounts (≈) assume the structure as drawn. Blank lines part the entries; values can stand above or below the molecule they belong to.

What was measured:
Klebsiella pneumoniae = experiment: Antimicrobial activity against Klebsiella pneumoniae; type: functional
Staphylococcus aureus [1] = experiment: microbe, parasite or virus in culture
Escherichia coli [2] = experiment: microbe, parasite or virus in culture
Rattus norvegicus [3] = experiment: Antiinflammatory activity in carrageenan induced rat paw edema model relative to indomethacin; type: functional
[4] = Growth inhibition of human Panel NCI-58 (58 carcinoma cell lines) cells by SRB method; type: functional
UO-31 [5] = experiment: Cytotoxicity against human UO-31 cells by SRB method; type: functional; settings: read-out: LC50 (the source's name)
UO-31 [6] = experiment: Growth inhibition of human UO-31 cells by SRB method; type: functional
[7] = Cytotoxicity against human Panel NCI-58 (58 carcinoma cell lines) cells by SRB method; type: functional; settings: read-out: LC50 (the source's name)
Plasmodium falciparum [8] = experiment: Antimalarial activity against chloroquine-sensitive Plasmodium falciparum NF54 measured after 72 hrs by giemsa staining based analysis; type: functional, organism-based; settings: NF54, 72 h
Hemozoin = experiment: Inhibition of Beta-hematin in Plasmodium berghei
Plasmodium falciparum [9] = experiment: In vivo antimalarial activity against Plasmodium berghei K173 infected in mouse assessed as reduction in parasitemia at 50 mg/kg, ip measured after 6 days by giemsa staining based microscopic analysis relative to control; type: functional; set-up: scale not given: the % may be the effect or the level left; settings: time 6 day
Plasmodium falciparum [10] = experiment: In vivo antimalarial activity against Plasmodium berghei K173 infected in mouse assessed as reduction in parasitemia at 100 mg/kg, ip measured after 6 days by giemsa staining based microscopic analysis relative to control; type: functional; set-up: scale not given: the % may be the effect or the level left; settings: time 6 day
Plasmodium falciparum [11] = experiment: In vivo antimalarial activity against Plasmodium berghei K173 infected in mouse assessed as chemo-supression percentage at 50 mg/kg, ip by giemsa staining based microscopic analysis relative to control; type: functional
Plasmodium falciparum [12] = experiment: In vivo antimalarial activity against Plasmodium berghei K173 infected in mouse assessed as chemo-supression percentage at 100 mg/kg, ip by giemsa staining based microscopic analysis relative to control; type: functional
Mus musculus = experiment: Anticonvulsant activity in BALB/c mouse assessed as increase in survival rate at 60 mg/kg, ip by PTZ method relative to control; type: functional
Rattus norvegicus [13] = experiment: Antiinflammatory activity in carrageenan induced rat paw edema model assessed inhibition of TNF-alpha level; type: functional, organism-based
Carbonic anhydrase 1 = Carbonic anhydrase 1 (Homo sapiens, UniProt P00915); experiment: Inhibition of human CA1 by UV spectrophotometric analysis
Carbonic anhydrase 1, sequence (P00915 whole entry): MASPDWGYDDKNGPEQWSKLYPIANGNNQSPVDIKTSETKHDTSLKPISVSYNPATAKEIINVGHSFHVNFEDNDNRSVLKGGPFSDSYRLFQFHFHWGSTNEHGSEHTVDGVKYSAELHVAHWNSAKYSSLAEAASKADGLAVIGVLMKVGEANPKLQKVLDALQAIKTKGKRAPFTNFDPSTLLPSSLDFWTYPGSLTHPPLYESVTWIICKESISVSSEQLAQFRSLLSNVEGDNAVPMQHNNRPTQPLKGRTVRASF

Carbonic anhydrase 2 = Carbonic anhydrase 2 (Homo sapiens, UniProt P00918); experiment: Inhibition of human CA2 by UV spectrophotometric analysis
Acetylcholinesterase = Acetylcholinesterase (Homo sapiens, UniProt P22303)
Acetylcholinesterase, sequence (P22303 whole entry): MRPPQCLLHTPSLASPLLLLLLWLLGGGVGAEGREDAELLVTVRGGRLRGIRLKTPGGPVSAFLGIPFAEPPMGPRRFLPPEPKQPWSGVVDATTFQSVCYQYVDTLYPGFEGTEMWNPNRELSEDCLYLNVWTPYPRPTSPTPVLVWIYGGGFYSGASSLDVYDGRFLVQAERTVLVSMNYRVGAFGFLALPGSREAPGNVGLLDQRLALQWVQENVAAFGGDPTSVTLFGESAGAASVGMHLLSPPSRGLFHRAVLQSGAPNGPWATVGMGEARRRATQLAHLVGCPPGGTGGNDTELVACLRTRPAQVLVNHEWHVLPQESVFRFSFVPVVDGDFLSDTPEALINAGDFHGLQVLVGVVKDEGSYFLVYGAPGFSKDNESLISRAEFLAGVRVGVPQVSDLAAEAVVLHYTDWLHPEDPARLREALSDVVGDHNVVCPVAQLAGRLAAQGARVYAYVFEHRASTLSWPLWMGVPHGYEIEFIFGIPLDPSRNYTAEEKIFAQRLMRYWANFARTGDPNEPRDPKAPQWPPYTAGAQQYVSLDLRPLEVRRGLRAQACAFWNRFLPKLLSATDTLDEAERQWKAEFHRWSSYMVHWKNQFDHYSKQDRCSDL

RAW264.7 [14] = experiment: Antiinflammatory activity in LPS-induced mouse RAW264.7 cells assessed as inhibition of LPS induced NO production; type: functional, cell-based
RAW264.7 [15] = experiment: Cytotoxicity against mouse RAW264.7 cells relative to control; type: functional
[16] = system: Mycolicibacterium smegmatis; experiment: Antimycobacterial activity against Mycobacterium smegmatis; type: functional
Staphylococcus aureus [17] = experiment: microbe, parasite or virus in culture; remark: listed apart in the source
Candida albicans [18] = experiment: microbe, parasite or virus in culture
Escherichia coli [19] = experiment: microbe, parasite or virus in culture; remark: listed apart in the source
Pseudomonas aeruginosa = experiment: microbe, parasite or virus in culture
[20] = Inhibition of Bacillus subtilis DNA gyrase
Staphylococcus aureus [21] = experiment: microbe, parasite or virus in culture; remark: listed apart in the source
Bacillus subtilis = experiment: microbe, parasite or virus in culture
Candida albicans [22] = experiment: Antifungal activity against Candida albicans; type: functional

MIC (Klebsiella pneumoniae): 15 µg/mL (≈ 31 µM)
MIC (Staphylococcus aureus [1]): 3.9 µg/mL (≈ 8.07 µM)
MIC (Escherichia coli [2]): 3.9 µg/mL (≈ 8.07 µM)
SMILES: CCOC(=O)C1N=NN(CC(=O)N2N=C(c3ccccc3)CC2c2cccs2)C1C(=O)OCC (configuration not stated)

SMILES: Cc1ccc(/C=C/C2=NN(C(N)=O)C(c3ccc(C)s3)C2)s1 (configuration not stated)
Activity (Rattus norvegicus [3]): 103%

SMILES: O=C(/C=C/c1ccc(C(F)(F)F)cc1)c1ccc(Nc2nc(NCCO)nc(NCCO)n2)cc1
GI50 [4]: 569 nM
CC50 (UO-31 [5]): 19500 nM
GI50 (UO-31 [6]): 1500 nM
CC50 [7]: 5150 nM

IC50 (Plasmodium falciparum [8]): < 2000 nM
IC50 (Hemozoin): 38800 nM
SMILES: COc1cc(C)c(C2C=C(c3cc(OC)c(OC)c(OC)c3)N(C(=O)OC(C)C)N2C(=O)OC(C)C)cc1C(C)C (configuration not stated)
Activity (Plasmodium falciparum [9]): 8.03%
Activity (Plasmodium falciparum [10]): 4.62%
Activity (Plasmodium falciparum [11]): 25.29%
Activity (Plasmodium falciparum [12]): 55.6%

SMILES: O=C(Nc1ccc(Cl)cc1)N1N=C(c2ccc(Cl)s2)CC1c1c(Cl)cccc1Cl (configuration not stated)
survival at 60 mg/kg (Mus musculus): 100%

IC50 (Rattus norvegicus [13]): 1.7 nM
SMILES: Cc1ccc(/C=C/C2=NN(c3ccccc3)C(c3ccc(C)s3)C2)s1 (configuration not stated)

SMILES: COc1ccc(C2CC(c3ccccc3)=NN2c2ccc(S(N)(=O)=O)cc2)cc1OC (configuration not stated)
Ki (Carbonic anhydrase 1): 27.9 nM
Ki (Carbonic anhydrase 2): 27.4 nM
Ki (Acetylcholinesterase): 37.7 nM

IC50 (RAW264.7 [14]): 860 nM
SMILES: C[C@]12CC[C@H]3[C@@H](CC=C4C[C@@H](O)CC[C@@]43C)[C@@H]1CC[C@@H]2C1=NN(C(N)=S)C(c2ccccc2Cl)C1 (some centres not stated)
Activity (RAW264.7 [15]): >90%

MIC [16]: 15.6 µg/mL (≈ 30.9 µM)
MIC (Staphylococcus aureus [17]): 15.6 µg/mL (≈ 30.9 µM)
MIC (Candida albicans [18]): 15.6 µg/mL (≈ 30.9 µM)
SMILES: COc1ccc(-c2nn(-c3ccc(Cl)cc3)cc2C2CC(c3ccc(-c4ccccc4)cc3)=NN2)cc1 (configuration not stated)

MIC (Escherichia coli [19]): 12.5 µg/mL (≈ 27.9 µM)
MIC (Pseudomonas aeruginosa): 12.5 µg/mL (≈ 27.9 µM)
SMILES: O=C(c1ccncc1)N1N=C(c2ccc(Cl)cc2)CC1c1cc2ccccc2nc1Cl (configuration not stated)

IC50 [20]: 0.125 µg/mL (≈ 0.222 µM)
MIC (Staphylococcus aureus [21]): 0.39 µg/mL (≈ 0.693 µM)
MIC (Bacillus subtilis): 0.39 µg/mL (≈ 0.693 µM)
SMILES: CC(=O)N1N=C(c2ccc(C)cc2)CC1c1cc(Cl)ccc1Oc1c([N+](=O)[O-])cc(C(F)(F)F)cc1[N+](=O)[O-] (configuration not stated)

MIC (Staphylococcus aureus [1]): 3.9 µg/mL (≈ 8.56 µM)
MIC (Escherichia coli [2]): 3.9 µg/mL (≈ 8.56 µM)
SMILES: COC(=O)C1N=NN(CC(=O)N2N=C(c3ccccc3)CC2c2cccs2)C1C(=O)OC (configuration not stated)

MIC (Candida albicans [22]): 12.5 µg/mL (≈ 29 µM)
MIC (Escherichia coli [19]): 12.5 µg/mL (≈ 29 µM)
MIC (Pseudomonas aeruginosa): 12.5 µg/mL (≈ 29 µM)
SMILES: O=C(c1ccncc1)N1N=C(c2ccc(F)cc2)CC1c1cc2ccccc2nc1Cl (configuration not stated)

IC50 (RAW264.7 [14]): 1020 nM
SMILES: C[C@]12CC[C@H]3[C@@H](CC=C4C[C@@H](O)CC[C@@]43C)[C@@H]1CC[C@@H]2C1=NN(C(N)=S)C(c2cccc(F)c2)C1 (some centres not stated)
Activity (RAW264.7 [15]): >90%

IC50 (Rattus norvegicus [13]): 53.4 nM
SMILES: COc1cc(/C=C/C(=O)CC(=O)/C=C/c2ccc(O)c(OC)c2)ccc1O [CURCUMIN]
